Broadly, the Tmax is the time at which the peak concentration occurs. As usually defined, the Cmax is the peak of the concentration-time curve.

Consider 2 molecules from publication PMC3251867 (British Journal of Cancer, 2011).

Data set [1] in a line: CRA trough plasma concentrations (LC-MS/MS). In kind it is in vivo, human. How it is done: Cis retinoic acid PK studies were performed during the first 2 cycles of therapy. Serial sampling of venous blood was obtained at the following times: pre-treatment on Cycle 1, days 1, 2, 3, 4, 8, and 15 and pre-treatment on Cycle 2, days 1, 15, 16, 17, and 22. Blood samples were collected in heparinised tubes and were processed by centrifugation within 30 min at 1000 g at 4 °C for 10 min. Plasma was stored at −20 °C until analysis using a validated LC-MS/MS analytical method. Briefly, 1 ml plasma was extracted with 5 ml of acetonitrile/n-Butyl chloride (1 : 4, v/v) containing paclitaxel. Cis retinoic acid was separated on a Waters (Milford, MA, USA) X-Terra MS C18 (50 × 2.1 mm, 3.5 μm) column with 0.1% formic acid in acetonitrile/10 mM ammonium acetate (80 : 20, v/v) using isocratic flow of 0.2 ml min^−1 for 5 min. Cis retinoic acid was quantitated over the range of 5–2000 ng ml^−1. Quality control samples were assayed with each analytic run and were within 15% of the nominal concentration. […] Cmin at steady state (Css,min) was calculated for each patient by taking the average of the Cmin during each cycle.
Descriptive statistics were used to summarise patient characteristics, efficacy, and safety data. […] Differences between CRA Css,min during each cycle were evaluated statistically by use of a non-parametric, 2-sided Wilcoxon signed rank test for paired observations. […]

Details of data set [2]: method as in Thurn et al, 2011. To be noted: CRA after administration of a similar dose; ref Thurn et al, 2011; cited from earlier work.
A short description of data set [3]: Entinostat plasma pharmacokinetics (LC-MS/MS, non-compartmental analysis). To be noted: for Cls/F (apparent oral clearance) / half-life / Tmax / Cmax / AUC: plasma; for half-life / Tmax / Cmax / AUC: human; for AUC: read-out: AUC0−∝. In kind it is in vivo, human. The procedure: Pharmacokinetic studies were performed during the first 2 cycles of therapy. […] Blood samples were collected in heparinised tubes and were processed by centrifugation at 1000 g for 10 min. Plasma was stored at −20 °C until analysis. […] Quality control samples were assayed with each analytic run and were within 15% of the nominal concentration. Individual PK parameters were estimated by standard non-compartmental analysis, which was performed using WinNonlin, Version 5.3 (Pharsight Corporation, Mountain View, CA, USA; [Gibaldi, 1982]). Descriptive statistics were used to summarise patient characteristics, efficacy, and safety data. Pharmacokinetic parameters were summarised by descriptive statistics using dose-normalised parameters for dose-dependent parameters and actual values for dose-independent parameters. Kruskal–Wallis analysis of variance by ranks or the Wilcoxon rank-sum were used to compare the differences in entinostat PK parameters and CRA Css,min as a function of dose level. […] Statistical calculations were performed with the software package JMP, Version 4.0.4 (SAS Institute, Cary, NC, USA). The a priori level of significance was set at P<0.05.

The conditions of data set [4]: entinostat oral once weekly (fasting) with 1 mg kg^−1 CRA. How it is done: A starting dose of 4 mg m^−2 and a fixed CRA dose at 1 mg kg^−1 per dose level were planned. If a patient experienced toxicities the next lower level was 2 mg m^−2. […] Originally six dose levels were included ([…]). Each cohort consisted of three patients according to the standard 3+3 design, where if one patient experiences a DLT, three additional patients are enroled.
Dose-limiting toxicity was defined as first cycle adverse events ⩾grade 3 non-haematological or ⩾grade 4 haematological toxicities. The MTD was defined as one dose level below the dose at which ⩾ two of six patients experience DLT. […] Tumour response assessment was performed every two cycles (2 months) by both clinical assessment and imaging studies.

The subject of data set [5] is histone H3 acetylation in PBMCs. The data set can be described thus: Western blot of histone H3 acetylation in PBMCs. In kind it is in vivo, human. To be noted: pre-treatment vs post-treatment time points, entinostat with CRA. How it is done: (§1) A pre-treatment sample was taken on day 15. During Cycle 2, and subsequent cycles, samples were collected pre-treatment on days 1 and 15. […] Peripheral blood mononuclear cells were collected from patients according to the study calendar schedule. For isolation of PBMCs, 10 ml of blood were collected in CPT tubes (Vacutainer CPT Cell Preparation Tube with NC: 0.45 ml; Ficoll: 1.0 ml; Becton Dickinson, Franklin Lakes, NJ, USA) and plasma was separated by centrifugation. Differential centrifugation of plasma was performed to isolate PBMCs, which were kept frozen at −80 °C until the end of the study schedule for each patient. Fine needle aspiration (FNA) was planned on Cycle 1, day 22 in patients with accessible tumours to assess changes in acetylation and signalling pathway expression. For western blotting, PBMCs and tumour tissue were lysed in M-PER mammalian protein extraction reagent (Pierce, Rockford, IL, USA) with protease inhibitor cocktail (Roche Diagnostics, Indianapolis, IN, USA), followed by brief sonication. Proteins (20 μg per lane) from cell lysates were applied to 4–15% Tris-HCl gels (Bio-Rad, Hercules, CA, USA) and blotted with primary antibodies that were purchased from Upstate (Lake Placid, NY, USA) for anti-acetyl histone H3 and from Sigma (St Louis, MO, USA) for β-actin clone A1978, ERK, and phosphorylated ERK.
On the technique in general: In western blotting, separated proteins are transferred to a membrane and probed.

The subject of data set [6] is acetylated H3 in tumour tissue. The data set can be described thus: Western blot of tumour FNA: acetylated H3. In kind it is in vivo, human. To be noted: FNA of liver lesion, patient with metastatic prostate cancer; entinostat with CRA. How it is done: as §1
Data set [7] deals with phosphorylated ERK in tumour tissue. In words: Western blot of tumour FNA: phosphorylated ERK. As to conditions: FNA of liver lesion, patient with metastatic prostate cancer; entinostat with CRA. In kind it is in vivo, human. How it is done:
as §1

For data set [8], the system named is human prostate cancer cell line (LAPC4). In words: PSA secretion and PSA gene expression in LAPC4 cells in vitro. In kind it is cell-based. From the text: The sudden rise of tumour marker CA 19-9 in a patient with unresectable pancreatic cancer was worrisome for a rapid clinical progression. However, the CT scan documented stable disease for 6 months. […] An increase in the PSA slope occurred while on treatment, with a rapid deflection following treatment discontinuation. […] This observation poses some challenges as in the clinical development of ‘differentiation’ therapies increasing tumour marker levels may not be a significant sign for disease progression, but rather a potential signal of biological activity. […] Accordingly, the use of tumour markers for disease response assessment is evolving and needs to be further validated in prospective studies. Recently, the Prostate Cancer Clinical Trials Working Group recommended that in most clinical trials early changes in PSA should not be acted on without other evidence of disease progression, and treatment should be continued for at least 12 weeks to ensure adequate drug exposure ([Scher et al, 2008]).

Details of data set [9]: method as in Gore et al, 2008. As to conditions: entinostat single agent, 7- or 14-day schedule; ref Gore et al, 2008; cited from earlier work.

“And” between values parts separate entries of the source, which are not always exact repeats. Equal values may be shown once. “Also recorded” adds a separate entry of the source. Read-outs that look alike come from different tables or passages of the source. Marks after values point to notes of the source that are not given here.

In the case of `CC1=C(/C=C/C(C)=C/C=C/C(C)=C\C(=O)O)C(C)(C)CCC1` [CRA, 13-cis retinoic acid], the “average Css,min” value in data set [1] (Cycle 1, CRA 1 mg kg^−1 per day oral with entinostat) is 0.1949 ± 0.1035 µg/mL; in data set [1] (Cycle 2, CRA 1 mg kg^−1 per day oral with entinostat) it was 0.1318 ± 0.0793 µg/mL. For the same molecule, the steady-state trough concentrations in [2] is 160 ± 19 ng/mL.

In the case of `Nc1ccccc1NC(=O)c1ccc(CNC(=O)OCc2cccnc2)cc1` [entinostat], the “patients with measurable entinostat concentrations” value in data set [3] (1 week post-treatment) is recorded as 14 of 17. Moreover, the “Cls/F (apparent oral clearance)” value was 14.9±22.0 ^c l h^−1 m^−2 in data set [3] (all dose levels (Total) with CRA, Cycle 1, day 1, mean±s.d., n=13) and 14.9±22.0 l h^−1 m^−2 in data set [3] (all dose levels (Total) with CRA, Cycle 1, day 1, mean±s.d., n=13, listed as Entinostat). In addition, the variability in clearance in [3] (entinostat with CRA, patients with solid tumours) was 147%; in data set [9] it was 24–68%. Also, the half-life in [3] (oral, all dose levels (Total) with CRA, Cycle 1, day 1, mean±s.d., n=13, read-out: T1/2 (terminal half-life) (converted)) is 114 ± 78.2 h; in [3] (po, 4 mg m^−2, read-out: T1/2 (converted)), 130 ± 88.5 h; in data set [3] (po, 5 mg m^−2, read-out: T1/2 (converted)), 77.3 ± 31.9 h. Moreover, the Tmax is 0.42 h in [3] (oral, all dose levels (Total, 4 and 5 mg m^−2) with CRA, Cycle 1, day 1, median (range), 18 patients); 0.5 h in [3] (po, 4 mg m^−2); 0.25 h in [3] (po, 5 mg m^−2); at most 1 h in data set [9]. Besides, the Cmax in data set [3] (po, 4 mg m^−2) came out at 0.114 ± 0.084 µg/mL; in data set [3] (po, 5 mg m^−2), 0.109 ± 0.066 µg/mL. In addition, the AUC stood at 0.587 ± 0.401 µg·h/mL in [3] (po, 4 mg m^−2) and 0.778 ± 0.648 µg·h/mL in data set [3] (po, 5 mg m^−2). Further, the “maximum tolerated dose (MTD)” value in [4] was < 5 mg m^−2 and 4 mg m^−2. The “histone H3 acetylation in PBMCs” value in data set [5] is recorded as “transient increased acetylation”. Also, in data set [6], the “intra-tumoural acetylated H3” value is reported as “increased; also recorded: induction”. Besides, the “phosphorylated ERK protein levels in tumour” value in data set [7] is given as “decreased; also recorded: inhibition”. For the same molecule, the PSA gene expression entry in data set [8] is “no change”. For the same molecule, in data set [8] (achievable plasma concentrations of entinostat, data not shown), the “increase in PSA secretion into the culture media” value was 2.5 fold.
